In patent US12275731B2, “Azaindole inhibitors of wild-type and mutant forms of LRRK2” (DANA-FARBER CANCER INSTITUTE, INC., priority 2018, dated 2025):

Assays:
Experiment in all cases: KinomeScan profiling
Assay type in all cases: binding
[1] = biological target: T1, ADCK4 (Homo sapiens, UniProt Q96D53); conditions: ADCK4, 1 μM; read-out: % control
T1 construct: purchased KinomeScan®
T1 sequence (Q96D53 1-544): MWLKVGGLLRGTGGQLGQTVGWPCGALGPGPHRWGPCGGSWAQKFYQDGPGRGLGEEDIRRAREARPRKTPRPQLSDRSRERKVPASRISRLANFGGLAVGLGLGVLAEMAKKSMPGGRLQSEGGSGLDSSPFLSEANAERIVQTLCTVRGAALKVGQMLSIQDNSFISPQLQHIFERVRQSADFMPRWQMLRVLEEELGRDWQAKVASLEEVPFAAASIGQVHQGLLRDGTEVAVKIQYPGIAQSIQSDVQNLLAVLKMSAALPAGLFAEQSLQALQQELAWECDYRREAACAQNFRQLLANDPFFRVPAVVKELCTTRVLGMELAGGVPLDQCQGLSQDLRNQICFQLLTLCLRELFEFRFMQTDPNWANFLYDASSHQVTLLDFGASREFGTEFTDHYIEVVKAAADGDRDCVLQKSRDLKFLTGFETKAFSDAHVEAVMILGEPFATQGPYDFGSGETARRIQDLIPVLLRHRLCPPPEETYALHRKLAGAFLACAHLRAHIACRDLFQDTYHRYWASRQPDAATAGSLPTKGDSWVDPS
In short: (§1)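 Normalised RLU (% control; DMSO 100%, positive control 0%) was measured for compounds dosed at 1 μM over 468 kinases, active cut-off <35%.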

[2] = biological target: T2, ANKK1 (Homo sapiens, UniProt Q8NFD2); conditions: ANKK1, 1 μM; read-out: % control
T2 construct: purchased KinomeScan®
T2 sequence (Q8NFD2 1-765): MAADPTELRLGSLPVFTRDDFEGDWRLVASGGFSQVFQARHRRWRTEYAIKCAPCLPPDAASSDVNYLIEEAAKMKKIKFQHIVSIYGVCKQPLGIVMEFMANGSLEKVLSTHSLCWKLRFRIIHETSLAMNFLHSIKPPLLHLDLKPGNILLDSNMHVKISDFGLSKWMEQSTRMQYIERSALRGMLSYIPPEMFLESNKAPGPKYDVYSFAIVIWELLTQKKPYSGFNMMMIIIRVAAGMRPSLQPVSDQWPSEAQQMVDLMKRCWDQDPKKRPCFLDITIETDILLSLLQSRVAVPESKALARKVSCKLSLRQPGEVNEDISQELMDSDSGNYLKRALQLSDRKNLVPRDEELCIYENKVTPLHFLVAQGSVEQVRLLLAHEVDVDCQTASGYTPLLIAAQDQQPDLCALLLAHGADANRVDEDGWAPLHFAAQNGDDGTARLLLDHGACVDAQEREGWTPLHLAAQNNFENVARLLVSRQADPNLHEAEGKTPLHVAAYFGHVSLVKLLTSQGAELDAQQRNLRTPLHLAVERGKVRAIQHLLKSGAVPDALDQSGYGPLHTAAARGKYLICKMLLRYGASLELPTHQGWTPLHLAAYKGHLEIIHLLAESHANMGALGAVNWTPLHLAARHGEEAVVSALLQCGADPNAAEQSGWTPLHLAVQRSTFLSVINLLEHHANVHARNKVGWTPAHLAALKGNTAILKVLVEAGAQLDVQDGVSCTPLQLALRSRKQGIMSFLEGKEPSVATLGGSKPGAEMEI
In short: as §1

[3] = biological target: T3, FLT3(D835V) (Homo sapiens, UniProt P36888, D835V); conditions: read-out: % control
T3 sequence (P36888 27-993 D835V): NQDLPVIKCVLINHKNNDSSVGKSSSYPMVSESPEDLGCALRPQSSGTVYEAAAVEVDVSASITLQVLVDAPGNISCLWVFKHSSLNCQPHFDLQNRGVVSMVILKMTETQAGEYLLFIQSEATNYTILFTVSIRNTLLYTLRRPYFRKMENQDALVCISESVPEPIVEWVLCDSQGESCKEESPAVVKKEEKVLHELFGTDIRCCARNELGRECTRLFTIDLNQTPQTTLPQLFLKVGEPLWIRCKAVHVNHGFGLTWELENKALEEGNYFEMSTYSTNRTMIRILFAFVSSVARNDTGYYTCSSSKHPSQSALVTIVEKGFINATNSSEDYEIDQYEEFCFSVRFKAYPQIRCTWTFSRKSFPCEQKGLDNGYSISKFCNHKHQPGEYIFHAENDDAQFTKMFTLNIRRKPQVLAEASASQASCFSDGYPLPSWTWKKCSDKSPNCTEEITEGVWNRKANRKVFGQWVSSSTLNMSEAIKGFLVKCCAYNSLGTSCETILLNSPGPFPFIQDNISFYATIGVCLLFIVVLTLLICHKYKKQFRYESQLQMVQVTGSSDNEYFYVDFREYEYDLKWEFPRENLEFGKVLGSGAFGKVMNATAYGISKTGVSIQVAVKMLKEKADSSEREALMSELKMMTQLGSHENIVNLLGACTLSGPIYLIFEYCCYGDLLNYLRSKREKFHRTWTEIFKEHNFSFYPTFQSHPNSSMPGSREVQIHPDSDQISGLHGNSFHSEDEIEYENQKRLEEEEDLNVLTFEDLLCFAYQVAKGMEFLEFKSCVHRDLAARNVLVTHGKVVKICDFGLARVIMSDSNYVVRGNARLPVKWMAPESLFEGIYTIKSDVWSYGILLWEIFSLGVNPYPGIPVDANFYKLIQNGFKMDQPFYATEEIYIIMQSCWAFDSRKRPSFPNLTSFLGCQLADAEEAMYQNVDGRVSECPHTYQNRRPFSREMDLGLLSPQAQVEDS
In short: as §1

[4] = biological target: T4, KIT-autoinhibited (Homo sapiens, UniProt P10721); conditions: read-out: % control
T4 construct: purchased KinomeScan®
T4 sequence (P10721 544-976 limits assumed): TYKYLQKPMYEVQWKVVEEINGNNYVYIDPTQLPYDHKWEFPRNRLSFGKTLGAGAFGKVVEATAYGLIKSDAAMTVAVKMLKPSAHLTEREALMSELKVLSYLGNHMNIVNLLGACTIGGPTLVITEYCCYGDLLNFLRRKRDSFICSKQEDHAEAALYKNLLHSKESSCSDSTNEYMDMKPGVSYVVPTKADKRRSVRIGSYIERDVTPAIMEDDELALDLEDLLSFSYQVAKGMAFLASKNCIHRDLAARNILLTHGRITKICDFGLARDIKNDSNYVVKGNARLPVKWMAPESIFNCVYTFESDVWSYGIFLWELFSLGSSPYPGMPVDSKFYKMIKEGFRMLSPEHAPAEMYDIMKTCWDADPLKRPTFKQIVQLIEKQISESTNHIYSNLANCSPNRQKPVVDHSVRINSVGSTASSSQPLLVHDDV
In short: as §1

[5] = biological target: PAK3 (Homo sapiens, UniProt O75914); conditions: PAK3, 1 μM; read-out: % control
Sequence of PAK3 (O75914 whole entry): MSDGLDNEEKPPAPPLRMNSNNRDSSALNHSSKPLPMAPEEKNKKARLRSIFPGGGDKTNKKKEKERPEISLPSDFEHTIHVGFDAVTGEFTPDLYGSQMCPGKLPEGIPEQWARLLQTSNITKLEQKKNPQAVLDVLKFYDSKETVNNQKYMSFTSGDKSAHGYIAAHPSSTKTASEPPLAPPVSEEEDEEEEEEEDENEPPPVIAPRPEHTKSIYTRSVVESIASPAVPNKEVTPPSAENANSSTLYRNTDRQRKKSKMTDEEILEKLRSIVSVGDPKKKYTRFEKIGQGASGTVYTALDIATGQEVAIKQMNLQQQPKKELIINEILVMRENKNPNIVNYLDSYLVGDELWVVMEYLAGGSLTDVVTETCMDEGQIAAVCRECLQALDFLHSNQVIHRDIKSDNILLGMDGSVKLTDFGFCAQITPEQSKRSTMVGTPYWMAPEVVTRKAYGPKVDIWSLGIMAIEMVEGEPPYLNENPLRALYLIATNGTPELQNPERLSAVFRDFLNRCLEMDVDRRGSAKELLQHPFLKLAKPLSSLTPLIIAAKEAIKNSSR
In short: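 The panel spans 468 kinases, and each inventive compound was applied at 1 μM from DMSO. Lower % control means stronger binding; the activity cut-off is set at less than 35%.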

[6] = biological target: PFPK5(P. falciparum) (Plasmodium falciparum, UniProt P61075); conditions: read-out: % control
Sequence of PFPK5(P. falciparum) (P61075 whole entry): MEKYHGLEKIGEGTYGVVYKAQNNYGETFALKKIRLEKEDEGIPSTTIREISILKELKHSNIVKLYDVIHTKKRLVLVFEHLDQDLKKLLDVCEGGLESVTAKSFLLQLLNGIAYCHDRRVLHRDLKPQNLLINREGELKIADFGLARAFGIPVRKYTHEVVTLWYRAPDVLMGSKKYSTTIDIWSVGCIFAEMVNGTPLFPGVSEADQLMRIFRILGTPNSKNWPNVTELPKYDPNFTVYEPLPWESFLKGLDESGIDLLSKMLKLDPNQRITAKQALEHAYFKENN
In short: as §1

Structure (SMILES): O=C(c1ccc(-c2cnc3[nH]cc(Cl)c3c2NC2CCCC2)cc1)N1CCC(N2CCOCC2)CC1 [Compound 101, (4-(3-chloro-4-(cyclopentylamino)-1H-pyrrolo[2,3-b]pyridin-5-yl)phenyl)(4-morpholinopiperidin-1-yl)methanone]
- remaining binding at 1 µM [1]: 100%
- remaining binding at 1 µM [2]: 100%
- remaining binding at 1 µM [3]: 6.4%
- remaining binding at 1 µM [4]: 100%
- remaining binding at 1 µM [5]: 86%
- remaining binding at 1 µM [6]: 100%

Structure (SMILES): CNc1c(-c2cnn([C@H]3CCN(C(C)=O)C[C@@H]3F)c2)cnc2[nH]cc(Cl)c12 [Compound 77, 1-((3S,4S)-4-(4-(3-chloro-4-(methylamino)-1H-pyrrolo[2,3-b]pyridin-5-yl)-1H-pyrazol-1-yl)-3-fluoropiperidin-1-yl)ethan-1-one]
- remaining binding at 1 µM [1]: 100%
- remaining binding at 1 µM [2]: 73%
- remaining binding at 1 µM [3]: 0.5%
- remaining binding at 1 µM [4]: 23%
- remaining binding at 1 µM [5]: 97%
- remaining binding at 1 µM [6]: 100%

Structure (SMILES): CNc1c(-c2ccc(C(=O)N3CCC(N4CCOCC4)CC3)cc2)cnc2[nH]cc(Cl)c12 [Compound 96, (4-(3-chloro-4-(methylamino)-1H-pyrrolo[2,3-b]pyridin-5-yl)phenyl)(4-morpholinopiperidin-1-yl)methanone]
- remaining binding at 1 µM [1]: 100%
- remaining binding at 1 µM [2]: 51%
- remaining binding at 1 µM [3]: 2.9%
- remaining binding at 1 µM [4]: 64%
- remaining binding at 1 µM [5]: 74%
- remaining binding at 1 µM [6]: 100%
